Experimental data taken from patent US5756538A, “Flavonoid and biflavonoid derivatives, their pharmaceutical compositions, their anxiolytic activity” (University of Strathclyde, priority 1993, dated 1998).
Where two headings read alike, the source gives them in different places.

Assays:
mice [1] = assay: PTZ induced seizures in mice (anticonvulsant activity); type: in vivo
Experimental: (Induced seizures in mice)
Benzodiazepines in general show an anxiolytic effect, a sedative effect and an anticonvulsant effect. In order to assess the present compounds for anticonvulsant activity the following experiment was carried out.
The method of Medina et al Biochem.Pharm. 40 p2227-2231, (1990) was followed (with the exception that injections were carried out intraperitoneally) and the mice observed for seizures.
EFFECTS OF IP ADMINISTRATION OF APIGENIN ON PTZ
INDUCED SEIZURES IN MICE.
The convulsant doses of pentylenetetrazole are between 50-80 mg/kg in different experiments carried out in 6 independent days.

mice [2] = assay: Holeboard test (exploratory activity, sedation); type: in vivo, mice (male CF1)
Experimental: (b) Holeboard Test: consisted of a wood box (60×60×30 cm) with four 2 cm diameter holes equidistant in the floor. The number of head-dips and the time spent head-dipping were counted during 5 min. An increase in the number and the time spent head-dipping implies a greater exploratory activity.
(§1) All the injections were given intraperitoneally (i.p.). […] Testing was carried out `blind`. All data were submitted to analysis of variance (ANOVA).

[3] = system: locus coeruleus noradrenaline; assay: Noradrenaline levels in locus coeruleus after immobilization stress; type: in vivo, rats; conditions: 1 mg/kg i.p., 30 min before 90-min stress session
Experimental: Rats were submitted to a 90-minute immobilization stress session in a plastic cylinder. The locus coeruleus was dissected out after killing by decapitation and noradrenaline assessed by HPLC with electrochemical detection. Doses were 1 mg/kg for each substance, injected i.p., 30 minutes before the stress session.

mice [4] = assay: Horizontal wire test (muscle relaxation); type: in vivo, mice (male CF1)
Experimental: (d) Horizontal Wire Test: It consisted of an horizontally strung wire (1 mm diameter, 15 cm long), placed at 20 cm from the table. Mice were lifted by the tail, allowed to grasp the wire with their forepaws and released. […] After two trials, performed at 5 min. intervals, the test took place. A myorelaxant drug, like diazepam at high doses, will impair the ability of mice to grasp the wire. Generally, this state of muscle relaxation is commonly associated with sedation.
as §1
The test took place after two trials, executed after a 5 min interval.

benzodiazepine receptor = assay: Competitive inhibition of 3H-flunitrazepam binding to benzodiazepine receptor (cerebral cortical membranes); set-up: species or system bovine
Experimental: (Competitive inhibition of H^3 -flunitrazepam to benzodiazepine receptor)
Binding of 3H-flunitrazepam (0.7 nM) to the benzodiazepine receptor was carried out in extensively washed cerebral cortical membranes.
H^3 -flunitrazepam has a Ki of […] to the benzodiazepine receptor.
IC50 values were obtained using flavonoids at different concentrations (10^-10 to 10^-3 M).
Structure - activity relationships of several flavonoids on
the ^3 H Flunitrazepam binding to bovine brain membranes.

mice [5] = assay: Elevated plus maze (anxiety); type: in vivo, mice (male CF1); conditions: for Total arm entries / Percentage of entries in the open arms / Percentage of the time spent on the open arms: 20 min after injection; for Total arm entries: 5 min test, mean ± S.E.M.
Experimental: (a) Elevated Plus Maze: consisted of 4 perpendicularly disposed wood arms (20×5 cm; two had 35 cm high wood walls, and two were open) linked by a central 10×10 cm square. The maze was suspended 50 cm from the room floor. Animals were placed on the central part of the maze facing a closed arm. This test has been widely validated to measure anxiety in rodents. The number of entries into and the time spent in the open and closed arms were counted during 5 min. […] Total exploratory activity (number of entries in both arms) was also determined.
as §1

mice [6] = assay: Locomotor activity test (OPTO-VARIMEX)
Experimental: Male CF1 mice from our breeding stock weighing 28-35 g were used. The animals were placed in groups of 10-12 with free access to water and food, and maintained on a 12 h/12 h day-night cycle.
Diazepam (DZ; Hoffman-La Roche) and the flavonoids were dissolved in DMSO 40%, NaOH 0.1N (7:3: v/v) at pH 8.2 Control animals were injected with the same vehicle (VEH). RO 15-1788 (Hoffmann-La Roche) was suspended in DMSO 10%, propyleneglycol 10% in distilled water.
(c) Locomotor Activity Test: we used an OPTO-VARIMEX apparatus consisting of a glass box (36×15×20 cm) and two lateral bars with 15 light beams (0.32 cm diameter, beam spacing 2.65 cm). The apparatus detects automatically all the mouse movements, and discriminates between total and ambulatory activity. The locomotor activity (number of movements across the beams) was counted during 5 min. An increase in the number of transitions through the beams reflects an augmented locomotor activity.
The general procedure for all the tests is as follows: mice were injected with vehicle or the drug solution 20 min before the beginning of the test and put into another home cage. Ro 15-1788, a specific BZD receptor antagonist was injected 10 min before the tested drug. All the injections were given intraperitoneally (i.p.). Control mice were tested in each session, in parallel with those animals receiving the test drug or diazepam. Testing was carried out `blind`. All data were submitted to analysis of variance (ANOVA). Post-hoc comparisons between individual treatments and controls were made using Dunnett's t-test.
FIGS. 15, 16, 17 and 18 show ambulatory locomoter activity counts during a 5 min. test session in an OPTO-Varimex apparatus, 20 min. after i.p. injection with a mixture of brominated flavones (0.6,1,3 mg/kg), FIG. 15; 2' chlorinated chrysin (1,3 mg/kg); FIG. 16; 2' fluorinated chrysin (3 mg/kg), FIG. 17; 6,8 dibromoflavone, FIG. 18. Data are expressed as medians (interquartile range) of (n) number of animals.

[7] = 3H-flunitrazepam 0.7 nM, read-out: IC50 at the benzodiazepine receptor
[8] = bovine brain membranes, 0.7 nM 3H-flunitrazepam, read-out: 3H Flunitrazepam binding IC50

O=c1cc(-c2ccc(O)cc2)oc2cc(O)cc(O)c12 [Apigenin, 4', 5,7-trihydroxyflavone]
Number of animals with clonic convulsions (mice [1]; 3 mg/kg i.p. + PTZ): 8/8
Number of animals with clonic convulsions (mice [1]; 20 mg/kg i.p. + PTZ): 3/3
Number of animals with clonic convulsions (mice [1]; 40 mg/kg i.p. + PTZ): 12/14
Number of animals with clonic convulsions (mice [1]; 80 mg/kg i.p. + PTZ): 11/11
Anticonvulsant activity (mice [1]; i.p., PTZ induced seizures): no anticonvulsant activity
Effect in the holeboard test (mice [2]; 3 and 10 mg/kg i.p.): did not induce any effect
Noradrenaline decrease in locus coeruleus provoked by immobilization stress [3]: blocked almost completely the noradrenaline decrease
Potency vs diazepam on stress-provoked noradrenaline decrease [3]: most potent effect
Noradrenaline decrease in locus coeruleus provoked by immobilization stress ([3]; listed as apigenin): dampened the noradrenaline decrease
Effect in the horizontal wire test (mice [4]; 3 and 10 mg/kg i.p.): did not induce any effect
Benzodiazepine ligand behaviour / affinity relative to 3H-flunitrazepam (benzodiazepine receptor): benzodiazepine ligand behaviour similar to that of ^3 H-flunitrazepam
IC50 (benzodiazepine receptor; [7]): 700 to 3000 nM
IC50 (benzodiazepine receptor; [8]): 3000 nM
Anxiolytic effect in the elevated plus maze (mice [5]; i.p.): shows anxiolytic effects

C[C@@H]1O[C@@H](OC[C@H]2O[C@@H](Oc3c(-c4ccc(O)c(O)c4)oc4cc(O)cc(O)c4c3=O)[C@H](O)[C@@H](O)[C@@H]2O)[C@H](O)[C@H](O)[C@H]1O [Rutin, reference compound]
IC50 (benzodiazepine receptor; [8]): 60000 nM

COc1cc(O)c2c(=O)cc(-c3ccccc3)oc2c1 [5 hydroxy 7 methoxyflavone, 5-hydroxy-7-methoxyflavone]
IC50 (benzodiazepine receptor; [8]): 46000 nM

CN1C(=O)CN=C(c2ccccc2)c2cc(Cl)ccc21 [Diazepam, reference compound]
Number of animals with clonic convulsions (mice [1]; 3 mg/kg i.p. + PTZ): 0/6
Number of head-dips (mice [2]; 0.3 mg/kg i.p.): increased the number of head-dips (p<0.05)
Time spent head-dipping (mice [2]; 1 mg/kg i.p.): increased the time spent head-dipping(p<0.01)
Number of head-dips (mice [2]; 6 mg/kg i.p.): decrease in both the number of head-dips and in the time spent head-dipping (p<0.01)
Sedation (mice [2]; 6 mg/kg i.p.): indicates sedation
Time spent head-dipping (mice [2]; 6 mg/kg i.p.): decrease in both the number of head-dips and in the time spent head-dipping (p<0.01)
Percentage of animals grasping the horizontal wire (mice [4]; 6 mg/kg i.p.): significantly decreased
Locomotor activity (mice [6]; 0.3-3 mg/kg i.p., 20 min after injection): increasing locomotor activity
Total arm entries (mice [5]; 0.3 mg/kg i.p.): 10.5 ± 0.8
Total arm entries (mice [5]; 0.6 mg/kg i.p.): 12.4 ± 1.9
Percentage of entries in the open arms (mice [5]; 0.3 and 0.6 mg/kg i.p.): increased the percentage of entries in the open arms (p<0.01)
Percentage of the time spent on the open arms (mice [5]; 0.3 and 0.6 mg/kg i.p.): the percentage of the time spent on the open arms (p<0.01)
Anxiolytic effect in the elevated plus maze (mice [5]; i.p.): displayed an anxiolytic effect
Total arm entries, difference from controls (mice [5]; i.p., doses of Table I): No differences were observed

COc1ccc(-c2cc(=O)c3c(O)cc(O)c(-c4cc(-c5cc(=O)c6c(O)cc(O)cc6o5)ccc4OC)c3o2)cc1 [Isoginkgetin]
IC50 (benzodiazepine receptor; [8]): 4000 to 5000 nM

O=c1cc(-c2ccccc2)oc2cc(Br)ccc12 [7-bromoflavone]
Ambulatory locomotor activity counts vs controls (mice [6]; i.p., dose not stated): No significant change
Benzodiazepine ligand behaviour / affinity relative to 3H-flunitrazepam (benzodiazepine receptor): far higher affinity for the benzodiazepine receptor
IC50 (benzodiazepine receptor; [7]): 50 nM
IC50 (benzodiazepine receptor; [8]): 50 nM

O=c1cc(-c2ccc(O)c(-c3c(O)cc(O)c4c(=O)cc(-c5ccc(O)cc5)oc34)c2)oc2cc(O)cc(O)c12 [Amentoflavone]
Benzodiazepine ligand behaviour / affinity relative to 3H-flunitrazepam (benzodiazepine receptor): far higher affinity for the benzodiazepine receptor
IC50 (benzodiazepine receptor; [7]): 10 nM
IC50 (benzodiazepine receptor; [8]): 10 nM

CN1C(=O)CN=C(c2ccccc2F)c2cc([N+](=O)[O-])ccc21 [H^3 -flunitrazepam, reference compound]
Ki (benzodiazepine receptor): 3 nM

O=c1cc(-c2ccccc2)oc2c(Br)c(O)c(Br)c(O)c12 [6,8 dibromochrysin, 6,8-Dibromo-5,7-dihydroxyflavone]
Benzodiazepine ligand behaviour / affinity relative to 3H-flunitrazepam (benzodiazepine receptor): benzodiazepine ligand behaviour similar to that of ^3 H-flunitrazepam
IC50 (benzodiazepine receptor; [7]): 700 to 3000 nM
IC50 (benzodiazepine receptor; [8]): 700 nM

O=c1c(O[C@@H]2O[C@H](CO)[C@@H](O)[C@H](O)[C@H]2O)c(-c2ccc(O)c(O)c2)oc2cc(O)cc(O)c12 [Isoquercetin, reference compound]
IC50 (benzodiazepine receptor; [8]): 10000 nM

COc1cc(O)c2c(=O)cc(-c3ccc(OC)c(-c4c(O)cc(O)c5c(=O)cc(-c6ccc(O)cc6)oc45)c3)oc2c1 [Ginkgetin]
IC50 (benzodiazepine receptor; [8]): 5000 nM

O=C1CC(c2ccccc2)Oc2ccccc21 (centres unmarked) [flavanone, reference compound]
IC50 (benzodiazepine receptor; [8]): 40000 nM

O=c1cc(-c2ccccc2)oc2ccccc12 [Flavone, 2-phenyl-4H-1-benzopyran-4-one]
Benzodiazepine ligand behaviour / affinity relative to 3H-flunitrazepam (benzodiazepine receptor): benzodiazepine ligand behaviour similar to that of ^3 H-flunitrazepam
IC50 (benzodiazepine receptor; [7]): 700 to 3000 nM
IC50 (benzodiazepine receptor; [8]): 1000 nM
Percentage of entries in the open arms (mice [5]; 1 mg/kg i.p.): increased the percentage of entries and time spent in the open arms (p<0.002)
Percentage of the time spent on the open arms (mice [5]; 1 mg/kg i.p.): increased the percentage of entries and time spent in the open arms (p<0.002)

6,8 dibromoflavone
Ambulatory locomotor activity counts vs controls (mice [6]; i.p., dose not stated): No significant difference

O=c1cc(-c2ccccc2F)oc2cc(O)cc(O)c12 [2' fluorochrysin, 5,7-Dihydroxy-2'-fluoroflavone]
Ambulatory locomotor activity counts vs controls (mice [6]; 3 mg/kg i.p., 20 min after injection, 5 min session): No significant difference
IC50 (benzodiazepine receptor; [8]): 8000 nM

O=c1cc(-c2ccccc2Cl)oc2cc(O)cc(O)c12 [2' chlorochrysin, 5,7-Dihydroxy-2'-chloroflavone]
Ambulatory locomotor activity counts vs controls (mice [6]; 1, 3 mg/kg i.p., 20 min after injection, 5 min session): No significant difference
IC50 (benzodiazepine receptor; [8]): 9000 nM

O=c1c(O[C@@H]2O[C@H](CO)[C@@H](O)[C@H](O)[C@H]2O)c(-c2ccc(O)c(O)c2)oc2cc(O)cc(O)c12 [Isoquercitrin, reference compound]
IC50 (benzodiazepine receptor; [8]): 80000 nM
